From PMC9607427, “Novel 7-Chloro-(4-thioalkylquinoline) Derivatives: Synthesis and Antiproliferative Activity through Inducing Apoptosis and DNA/RNA Damage” (Pharmaceuticals, 2022)
Read-outs that look alike come from different tables or passages of the source.

What was measured:
[1] = system: A549 (lung adenocarcinoma); assay: Cytotoxic MTS assay, A549; type: cell-based, human
Protocol: (§1) In vitro cytotoxic activity of final compounds 5–82 was evaluated after 3 days of incubation against eight cell lines derived from human solid tumors including lung (A549 cells) and colon (HCT116 and HCT116p53−/−) carcinomas, as well as leukemia cell lines (CCRF-CEM, CEM-DNR, K562, and K562-TAX) and osteosarcoma (U2OS cells). For comparison, non-malignant BJ and MRC-5 fibroblasts, and BJLD and MCR-5LD fibroblasts doxorubicin-resistant cell lines were used. Concentrations inhibiting the cell growth by 50% (IC50) were determined using a quantitative metabolic staining with 3-(4,5-dimethylthiazol-2yl)-5-(3-carboxymethoxyphenyl)-2-(4-sulfophenyl)-2H-tetrazolium (MTS) and are summarized in (Table 3).
(§2) Cytotoxic activity was determined by MTS assay following 72 h of incubation. IC50 is the lowest concentration that kills 50% of cells. The standard deviation in cytotoxicity assays is typically up to 20% of the average value. […] The tested cell lines: A549 (lung adenocarcinoma), BJ (noncancerous human fibroblasts from foreskin), BJLD (human lung fibroblast doxorubicin-resistant), CCRF-CEM (childhood T cell acute lymphoblastic leukemia), a daunorubicin-resistant subline of CCRF-CEM cells (CEM-DNR bulk), HCT116 (colorectal carcinoma), HCT116p53−/− (HCT116 with deleted p53 gene), K562 (chronic myeloid leukemia), K562-TAX (chronic myeloid leukemia paclitaxel-resistant subline), MRC-5 (noncancerous human lung fibroblasts), MRC-5LD (noncancerous human lung fibroblasts doxorubicin-resistant), and U2OS (osteosarcoma).
(§3) All cell lines were purchased from the American Tissue Culture Collection (ATCC). The A549 cell line is lung adenocarcinoma. MRC-5 and BJ cell lines were used as a non-tumor control and represent human fibroblasts. (MRC-5 LD and BJLD) are doxorubicin-resistant human lung fibroblast cell lines. The CCRF-CEM line is derived from T lymphoblastic leukemia, evincing high chemosensitivity, whereas K562 represent cells from an […] patient sample with bcr-abl translocation. The daunorubicin-resistant subline of CCRF-CEM cells (CEM-DNR bulk) and paclitaxel-resistant subline K562-TAX were selected in our laboratory by the cultivation of maternal cell lines in increasing concentrations of daunorubicin or paclitaxel, respectively. The CEM-DNR bulk cells overexpress MRP-1 and P-glycoprotein protein, whereas K562-TAX cells overexpress P-glycoprotein only. Both proteins belong to the family of ABC transporters and are involved in the primary and/or acquired multidrug-resistance phenomenon. The U2OS cell line is derived from osteosarcoma, HCT116 is a colorectal tumor cell line and its p53 gene knock-down counterpart (HCT116p53−/−, Horizon Discovery Ltd., Cambridge, UK) is a model of human cancers with p53 mutation frequently associated with poor prognosis. The cells were maintained in nunc/corning 80 cm^2 plastic tissue culture flasks and cultured in a cell culture medium according to ATCC or Horizon recommendations (DMEM/RPMI 1640 with 5 g/L glucose, 2 mM glutamine, 100 U/mL penicillin, […], 10% fetal calf serum, and NaHCO3).
(§4) The activity of compounds was determined using a standard 3-(4,5-dimethylthiazol-2-yl)-5-(3-carboxymethoxyphenyl)-2-(4-sulfophenyl)-2H-tetrazolium (MTS) and it was performed at the Institute of Molecular and Translational Medicine by a robotic platform (High-ResBiosolutions). Cell suspensions were prepared and diluted according to the particular cell type and the expected target cell density (25,000–35,000 cells/mL based on cell growth characteristics). Cells were added by automatic pipettor (30 µL) into 384-well microtiter plates. All tested compounds were dissolved in 100% DMSO and four-fold dilutions of the intended test concentration were added in 0.15 µL aliquots at time zero to the microtiter plate wells by the echo acoustic non-contact liquid handler Echo550 (Labcyte). […]

Cytotoxic MTS assay, BJ = type: cell-based, human; conditions: human, BJ cells (noncancerous foreskin fibroblasts); MTS, 72 h of incubation
Protocol: as §1, §2, §3, §4

[2] = Cytotoxic MTS assay, BJLD; type: cell-based, human; conditions: human, BJLD cells (fibroblasts, doxorubicin-resistant); MTS, 72 h of incubation
Protocol: as §1, §2, §3, §4

[3] = system: CCRF-CEM (childhood T cell acute lymphoblastic leukemia); assay: Cytotoxic MTS assay, CCRF-CEM; type: cell-based, human
Protocol: as §1, §2, §3, §4

[4] = system: CEM-DNR bulk (daunorubicin-resistant subline of CCRF-CEM cells); assay: Cytotoxic MTS assay, CEM-DNR; type: cell-based, human
Protocol: as §1, §2, §3, §4

[5] = system: HCT116 (colorectal carcinoma); assay: Cytotoxic MTS assay, HCT116; type: cell-based, human
Protocol: as §1, §2, §3, §4

[6] = system: HCT116p53−/− (HCT116 with deleted p53 gene); assay: Cytotoxic MTS assay, HCT116p53−/−; type: cell-based, human
Protocol: as §1, §2, §3, §4

[7] = system: K562 (chronic myeloid leukemia); assay: Cytotoxic MTS assay, K562; type: cell-based, human
Protocol: as §1, §2, §3, §4

[8] = system: K562-TAX (chronic myeloid leukemia paclitaxel-resistant subline); assay: Cytotoxic MTS assay, K562-TAX; type: cell-based, human
Protocol: as §1, §2, §3, §4

[9] = Cytotoxic MTS assay, MRC-5; type: cell-based, human; conditions: human, MRC-5 cells (noncancerous lung fibroblasts); MTS, 72 h of incubation
Protocol: as §1, §2, §3, §4

[10] = Cytotoxic MTS assay, MRC-5LD; type: cell-based, human; conditions: human; MTS, 72 h of incubation; read-out: Cytotoxic activity IC50, MRC5-LD
Protocol: as §1, §2, §3, §4

U2OS (osteosarcoma) = assay: Cytotoxic MTS assay, U2OS; type: cell-based, human
Protocol: as §1, §2, §3, §4

[11] = system: BJ (noncancerous human fibroblasts from foreskin); assay: Cytotoxic MTS assay, BJ; type: cell-based
Protocol: as §1, §2, §3, §4

[12] = system: BJLD (human lung fibroblast doxorubicin-resistant); assay: Cytotoxic MTS assay, BJLD; type: cell-based
Protocol: as §1, §2, §3, §4

[13] = system: MRC-5 (noncancerous human lung fibroblasts); assay: Cytotoxic MTS assay, MRC-5; type: cell-based
Protocol: as §1, §2, §3, §4

[14] = system: MRC-5LD (noncancerous human lung fibroblasts doxorubicin-resistant); assay: Cytotoxic MTS assay, MRC-5LD; type: cell-based
Protocol: as §1, §2, §3, §4

[15] = Homo sapiens, A549, MTS, 72 h of incubation, read-out: Cytotoxic activity IC50, A549
[16] = Homo sapiens, CCRF-CEM, MTS, 72 h of incubation, read-out: Cytotoxic activity IC50, CCRF-CEM
[17] = Homo sapiens, CEM-DNR, MTS, 72 h of incubation, read-out: Cytotoxic activity IC50, CEM-DNR
[18] = Homo sapiens, HCT-116, MTS, 72 h of incubation, read-out: Cytotoxic activity IC50, HCT116
[19] = Homo sapiens, HCT-116, MTS, 72 h of incubation, read-out: Cytotoxic activity IC50, HCT116-p53
[20] = Homo sapiens, K562, MTS, 72 h of incubation, read-out: Cytotoxic activity IC50, K562
[21] = Homo sapiens, K562-Tax, MTS, 72 h of incubation, read-out: Cytotoxic activity IC50, K562-TAX
[22] = Homo sapiens, U2OS, MTS, 72 h of incubation, read-out: Cytotoxic activity IC50, U2OS

Compound | IC50 [1, 15] | IC50 at 72 h (Cytotoxic MTS assay, BJ) | IC50 at 72 h [2] | IC50 [3, 16] | IC50 [4, 17] | IC50 [5, 18] | IC50 [6, 19] | IC50 [7, 20] | IC50 [8, 21] | IC50 at 72 h [9] | IC50 at 72 h [10] | IC50 (U2OS (osteosarcoma); [22]) | IC50 [1] | IC50 [11] | IC50 [12] | IC50 [3] | IC50 [4] | IC50 [5] | IC50 [6] | IC50 [7] | further results
Cc1ccc([N+](=O)[O-])c(C(=O)OCC[S+]([O-])c2ccnc3cc(Cl)ccc23)c1 (stereo not drawn) [Compound 49, 2-[(7-Chloroquinolin-4-yl)sulfinyl]ethyl-5-methyl-2-nitrobenzoate] | 15.7 µM | 30.7 µM | 23.5 µM | 1.34 µM | 7.75 µM | 7 µM | 7.56 µM | 12.3 µM | 6.4 µM | > 50 µM | > 50 µM | 11.2 µM | – | – | – | – | – | – | – | – | –
Cc1cc(C)cc(C(=O)OCC[S+]([O-])c2ccnc3cc(Cl)ccc23)c1 (stereo not drawn) [Compound 50, 2-[(7-Chloroquinolin-4-yl)sulfinyl]ethyl-3,5-dimethylbenzoate] | 24 µM | 30.8 µM | 28.5 µM | 1.32 µM | 10 µM | 7.99 µM | 7.1 µM | 15.2 µM | 9.58 µM | 26.9 µM | 22.3 µM | 8.57 µM | – | – | – | – | – | – | – | – | –
COc1ccccc1C(=O)OCC[S+]([O-])c1ccnc2cc(Cl)ccc12 (stereo not drawn) [Compound 47, 2-[(7-Chloroquinolin-4-yl)sulfinyl]ethyl-2-methoxybenzoate] | 32.2 µM | 31.2 µM | 30.7 µM | 2.74 µM | 26.8 µM | 15.9 µM | 11.3 µM | 16.9 µM | 11.3 µM | 28.2 µM | 26.1 µM | 19.1 µM | – | – | – | – | – | – | – | – | –
COc1ccc(OC)c(C(=O)OCCCS(=O)(=O)c2cc[n+]([O-])c3cc(Cl)ccc23)c1 [Compound 75, 3-[(N-Oxide 7-chloroquinolin-4-yl)sulfonyl]propyl-2,5-dimethoxybenzoate] | – | – | – | – | – | – | – | – | – | – | – | – | 7.28 µM | 26.6 µM | 17.8 µM | 1.45 µM | 7.22 µM | 5.37 µM | 6.86 µM | 7.14 µM | IC50 [8]: 9.56 µM; IC50 [13]: 21.5 µM; IC50 [14]: 18.9 µM; IC50 (U2OS (osteosarcoma)): 6.4 µM
O=C(OCCCS(=O)(=O)c1cc[n+]([O-])c2cc(Cl)ccc12)c1ccc(C(F)(F)F)cc1 [Compound 82, 3-[(N-Oxide 7-chloroquinolin-4-yl)sulfonyl]propyl-4-(trifluoromethyl)benzoate] | – | – | – | – | – | – | – | – | – | – | – | – | 6.66 µM | 23.5 µM | 13.9 µM | 1.05 µM | 3.46 µM | 4.9 µM | 6.59 µM | 6.24 µM | IC50 [8]: 4.01 µM; IC50 [13]: 23.7 µM; IC50 [14]: 19.8 µM; IC50 (U2OS (osteosarcoma)): 5.05 µM
